Laboratory results reported in patent US20020061836A1, “Methods for altering SXR activation using peptide mimetic HIV protease inhibitor SXR ligands” (priority 2000, published 2002).
pIC50: −log10 of the molar value. Like-named read-outs stand apart in the source and are kept apart here.

Assays:
[1] = system: cancer cell-lines and human xenografts; settings: variety of cancer cell-lines and human xenografts; read-out: IC50s for inhibition of proliferation; cited from earlier work
[2] = biological target: T1, human SXR ligand binding domain (Homo sapiens, UniProt O75469); assay: Gal-L-SXR (Gal-SXR) Gal4 reporter transient transfection assay in CV-1 cells
T1 sequence (O75469 107-434 limits assumed): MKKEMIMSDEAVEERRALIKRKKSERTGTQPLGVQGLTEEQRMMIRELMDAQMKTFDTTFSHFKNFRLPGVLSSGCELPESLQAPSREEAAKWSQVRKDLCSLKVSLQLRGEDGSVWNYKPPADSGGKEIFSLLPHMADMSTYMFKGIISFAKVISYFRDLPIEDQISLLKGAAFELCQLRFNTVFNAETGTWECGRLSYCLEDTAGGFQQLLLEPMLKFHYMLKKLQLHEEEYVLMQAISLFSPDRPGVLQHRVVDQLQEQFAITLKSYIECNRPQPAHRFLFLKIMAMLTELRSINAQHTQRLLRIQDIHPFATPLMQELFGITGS
Description: Use of a standard model heterologous cell system to reconstitute SXR agonist and antagonist responsiveness allows SXR activity to be monitored in the absence of the metabolic events which may obscure the process being tested. Any suitable heterologous cell system may be used to test the activation of potential or known SXR nuclear receptor ligands, as long as the cells are capable of being transiently transfected with the appropriate DNA which expresses receptors, reporter genes, response elements, and the like. Cells which constitutively express one or more of the necessary genes may be used as well. Cell systems that are suitable for the transient expression of mammalian genes and which are amenable to maintenance in culture are well known to those skilled in the art. […] Suitable reporter gene constructs are well known to skilled workers in the fields of biochemistry and molecular biology. Activity of the reporter gene can be conveniently normalized to the internal control and the data plotted as fold activation relative to untreated cells.
The Gal4 reporter activity was normalized to the internal β-galactosidase control and the data plotted as fold activation relative to untreated cells. All transfections contained the Gal4 reporter and a β-galactosidase expression vector as an internal control.
(§1) Izbicka et al., Ann. Oncol.
Gal-PXR containing the ligand binding domain of mouse PXR (#AF031814) was obtained from Bruce Blumberg.
Transient Transffection Assays—CV-1 cells were grown and transfected as described.

[3] = system: CV-1 cells
[4] = biological target: T2, mouse CARβ (Mus musculus, UniProt O35627); assay: Nuclear receptor specificity transfection assay / LXRE×3-TK-luc reporter with CARβ in CV-1 cells; format: cell-based; settings: LXRE×3-TK-luc reporter; 5 μM androstanol or 50 nM ET-743
T2 sequence (O35627 1-358): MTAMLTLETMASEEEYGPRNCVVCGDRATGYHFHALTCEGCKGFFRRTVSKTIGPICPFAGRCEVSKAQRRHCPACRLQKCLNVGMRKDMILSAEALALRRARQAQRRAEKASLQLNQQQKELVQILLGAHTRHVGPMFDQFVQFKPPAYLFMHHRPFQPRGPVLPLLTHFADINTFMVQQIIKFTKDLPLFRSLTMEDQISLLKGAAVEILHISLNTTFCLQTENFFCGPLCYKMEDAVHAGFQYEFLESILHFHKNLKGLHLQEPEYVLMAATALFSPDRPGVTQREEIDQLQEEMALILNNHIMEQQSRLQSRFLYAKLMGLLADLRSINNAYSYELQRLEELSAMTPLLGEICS

[5] = system: MDR1 mRNA; assay: Northern analysis of MDR1 expression in human LS180 cells; format: cell-based; settings: 10 μM, 24 hours
Protocol: as §1
(§2) Northern Blot Analysis—Primary human hepatocytes were obtained from Clonetics (Walkersville, Md.) and cultured according to the vendors instructions. Cells were treated with the indicated compounds for 24 hours and total RNA was isolated using the Trizol reagent.
(§3) After 24 hour exposure to the compounds, total RNA was prepared and analyzed by northern analysis using probes for MDR1 and the GAPDH control.

[6] = system: CV-1 cells; assay: Potential cytotoxic effects at the concentrations and treatment times used; settings: at the indicated concentrations and treatment times
[7] = biological target: SXR coactivator interaction (SRC1, ACTR, GRIP, PBP) (Homo sapiens, UniProt O75469); settings: CV-1 cells; 10 μM docetaxel
[8] = system: LS180 human colon cancer cells; assay: [14C]-paclitaxel efflux from pretreated LS180 cells; format: cell-based; settings: LS180 cells induced 48 hours with 10 μM paclitaxel, 10 μM docetaxel or 100 nM LG268
Protocol: Taxane-induced drug efflux was measured using pretreated LS180 human colon cancer cells. The rate of drug efflux was measured. […] Individual data points are the means of triplicate determinations, error bars represent standard deviation and the lines are lines of regression. The slope of each line (rate of efflux) was compared to the slope obtained in the control (untreated) cells using an analysis of covariance. […] The entire experiment was performed three times with similar results. […] The cells were then incubated in media supplemented with 10 μM [^14C]-paclitaxel (4.9 μCi/umol, Moravek Biochemicals, Brea, Calif.) for 15 minutes. The uptake of ^14C-paclitaxel reached maximum levels at 10-12 minutes (data not shown). After 15 minutes, the cells were then rapidly centrifuged through silicone oil to remove all traces of extracellular radioactivity, resuspended in fresh media, and cell counts determined. At multiple time points over the next 10 minutes, triplicate aliquots of the cell suspension (approx. 1×10^5 cells/aliquot) were again centrifuged through silicon oil and the radioactivity in the cell pellet measured by quench-corrected liquid scintillation counting. The rate of [^14C]-paclitaxel efflux was determined as the slope of the [^14C]-paclitaxel versus time plots using all data. The slope for each inducer was compared to the slope obtained in the control (untreated) cells using an analysis of covariance.

[9] = biological target: SXR interaction with nuclear corepressor SMRT (Homo sapiens, UniProt O75469); assay: Mammalian two-hybrid SXR-corepressor interaction assay; format: cell-based; settings: CV-1 cells; 10 μM
[10] = system: CYP2C8 mRNA; settings: primary human hepatocytes; 10 μM (LG268 100 nM); 48 hours
Protocol: Northern analysis was performed as follows. Primary human hepatocytes were obtained from Clonetics (Walkersville, Md.) and maintained in Hepatocyte Maintenance Medium supplemented with dexamethasone and insulin according to the vendors instructions. Cells were treated with the indicated SXR agonists for 48 hours and total RNA was isolated using the Trizol reagent.
as §2, §3

[11] = system: MRP2 mRNA; assay: Northern analysis of MRP2 expression in primary human hepatocytes; format: cell-based; settings: primary human hepatocytes; 2.5 μM hyperforin, 10 μM rifampicin, 10 μM SR12813; 24 hour
Protocol: as §2
After 24 hour exposure to the compounds, total RNA was prepared and analyzed by northern analysis using probes for MRP2 and the GAPDH control. […] CV-1 cells were transiently transfected with a Gal4 reporter and a vector expressing Gal4-fused to the ligand binding domain of human SXR (Gal-SXR).
as §3

COc1cc2c(cc1O)CCN[C@]21CS[C@@H]2c3c(OC(C)=O)c(C)c4c(c3[C@H](COC1=O)N1[C@@H]2[C@H]2c3c(cc(C)c(OC)c3O)C[C@@H]([C@@H]1O)N2C)OCO4 [ET-743, ecteinascidin-743]
pIC50 [1]: 7.00 to 9.00 | inhibition of SR12813- and paclitaxel-induced activation of Gal-L-SXR ([2]; 50 nM ET-743, 10 μM SR12813 or 10 μM paclitaxel): extremely potent and effective inhibitor | concentrations of maximal inhibition of SXR ([2]; wild-type SXR and Gal-L-SXR, 10 μM SR12813): 25 to 50 nM | potential cytotoxic effects [3]: minimal | effect on transcriptional activity of CARβ [4]: no effect

CC(=O)O[C@@]12CO[C@@H]1C[C@H](O)[C@@]1(C)C(=O)[C@H](O)C3=C(C)[C@@H](OC(=O)[C@H](O)[C@@H](NC(=O)OC(C)(C)C)c4ccccc4)C[C@@](O)([C@@H](OC(=O)c4ccccc4)[C@H]21)C3(C)C [docetaxel]
MDR1 mRNA expression [5]: did not induce | potential cytotoxic effects [6]: minimal | coactivator recruitment effect, less than that seen with paclitaxel [7]: 25-40% | rate of [14C]-paclitaxel efflux versus untreated cells [8]: did not differ from controls | activation of Gal-L-SXR [2]: did not effectively activate | effect on SXR-SMRT interaction [9]: little effect

CCOP(=O)(OCC)C(=Cc1cc(C(C)(C)C)c(O)c(C(C)(C)C)c1)P(=O)(OCC)OCC [SR12813]
CYP2C8 mRNA expression [10]: less than that seen with other SXR agonists | MRP2 mRNA expression [11]: induced expression
